Entries after “also recorded” stand apart in the source; their conditions may differ.
Key:
VDR = target: T1, VDR (Mus musculus, UniProt P48281); test: Cyp24a1 induction assay for VDR agonism in 4T1 cells; type: cell-based; details: 24 h
T1 construct: endogenous in cells; host or cells: 4TO7 and 4T1 mouse triple-negative breast cancer cells
T1 sequence (P48281 1-422): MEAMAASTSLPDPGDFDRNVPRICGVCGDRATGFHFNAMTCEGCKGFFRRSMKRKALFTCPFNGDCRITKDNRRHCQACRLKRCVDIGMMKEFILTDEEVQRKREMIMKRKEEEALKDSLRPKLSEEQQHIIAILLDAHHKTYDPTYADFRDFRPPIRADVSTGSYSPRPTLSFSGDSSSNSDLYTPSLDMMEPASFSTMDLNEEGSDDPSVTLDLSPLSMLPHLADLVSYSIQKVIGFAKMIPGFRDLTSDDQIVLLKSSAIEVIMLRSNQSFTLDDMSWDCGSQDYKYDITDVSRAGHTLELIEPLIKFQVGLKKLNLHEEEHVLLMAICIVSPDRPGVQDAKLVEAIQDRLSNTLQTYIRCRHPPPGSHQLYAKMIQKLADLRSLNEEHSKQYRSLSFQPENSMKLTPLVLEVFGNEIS
Description: Figure 5 (a) and (b) Analysis of induced Cyp24a1 expression in 4TO7 (a) and 4T1 (b) cells to test for VDR agonism of DK-406 and heterocyclic analogues after 24 h treatment. c-e. Analysis of the cytotoxicity of hybrid compounds after 24 h using the MTGlo assay (see Methods for details) in 4TO7 (c), 4T1 (d) and MDA-MB-231 (e) cells. […] Each condition was compared to control. *: p ≤ 0.05, **: p ≤ 0.01, ***: p ≤ 0.001, ****: p ≤ 0.0001, ns: not significant.
As previously, we were interested in studying the efficacy of hybrids in models of TNBC. We used the 4T1 cell line[20] as well as the related TNBC cell line 4TO7, which was derived from the same mouse tumor as 4T1 cells in Balb/c mice[33]. 4TO7 cells readily form primary tumors. […] These lines also have the advantage that anti-tumor efficacy studies can be performed in Balb/c mice, which have intact immune systems. Compounds were initially tested for VDR agonist activity in 4TO7 cells by screening induction of the VDR target gene Cyp24a1. […] The pyridyl hybrids were then tested for efficacy in vitro in 4TO7 and 4T1 cells using an MT-Glo assay in which only viable cells can convert a precursor into a substrate for a luciferase bioluminescence assay (Fig. 5c,d; see Methods for details).
Mouse 4T07 cells and 4T01 cells were cultured in DMEM (319–005-CL; WISENT Inc.) supplemented with 10% heat-inactivated FBS. […]

[1] = tested on: tubulin acetylation (HDAC6); test: Western blotting of tubulin acetylation in 4TO7 cells; type: cell-based, mouse; details: 6 h, western blot
Description: The hybrids were assessed to determine their HDACi and VDR agonist activity as well as their antiproliferative properties relative to DK-406. HDACi activity was assessed in vitro using an acetylated lysine substrate that releases a fluorescent reporter upon HDACi deacetylation and subsequent trypsin digestion. Increasing sidechain length of pyrimidine hybrids enhanced the potency of HDAC6 inhibition, with several compounds inhibiting HDAC6 with a sub-micromolar IC50, similar to that of DK-406 (Fig. 4a). […] Next, we analyzed the effects of compounds on levels of H3K9 and H3K27 acetylation in 4TO7 cells, which are controlled by class I HDACs[29],[30]. […] We also tested the capacity of analogues to induce tubulin acetylation, controlled by class II enzyme HDAC6[32], in 4TO7 cells. […]
Figure 4 (a) Results of in vitro assays for inhibition of purified HDAC2 and HDAC6 by DK-406 and heterocyclic hybrids as measured by inhibition of deacetylation of a fluorometric substrate (see Methods for details). […]
After treatments, 4T07 cells were solubilized in Lysis Buffer (20 mM Tris, pH 8, 150 mM NaCl, 1% Triton X-100, 3,5 mM SDS, 13 mM deoxycholic acid) and proteins extracted were separated on a 4–15% Tris/Glycine/SDS gel (BIO RAD). […] Signal was detected using Clarity ECL chemiluminescent substrates (Bio-Rad) and ChemiDoc Imaging System from the same company was used to quantify the intensity of bands. […]

Row | Structure (SMILES) | VDR agonist activity (Cyp24a1 induction) (VDR) | tubulin acetylation ([1]; 10^–6 M) | tubulin acetylation ([1]; 10^–5 M)
1 | CCC(CC)(c1ccc(OCCCCCC(=O)NO)cc1)c1ccc(OCC(O)C(C)(C)C)c(C)n1 (stereo not shown) [AM-193] | full agonists; also recorded: potency of AM-193 was confirmed | consistently induced tubulin acetylation | 
2 | CCC(CC)(c1ccc(C(=O)NCCCCCC(=O)NO)cc1)c1ccc(OCC(O)C(C)(C)C)c(C)c1 (stereo not shown) [DK-406] | full agonists |  | consistently induced tubulin acetylation

— paper PMC9038752, “Molecular mechanisms of bifunctional vitamin D receptor agonist-histone deacetylase inhibitor hybrid molecules in triple-negative breast cancer” (Scientific Reports, 2022)
